{"source": "paper PMC9377006", "about": "“Discovery of Desmuramylpeptide NOD2 Agonists with Single-Digit Nanomolar Potency” (ACS Medicinal Chemistry Letters, 2022)", "target": "T1, human NOD2 (Homo sapiens, UniProt Q9HC29)", "T1 construct": "host or cells: HEK-Blue NOD2 cells (derived from HEK293)", "T1 sequence (Q9HC29 whole entry)": "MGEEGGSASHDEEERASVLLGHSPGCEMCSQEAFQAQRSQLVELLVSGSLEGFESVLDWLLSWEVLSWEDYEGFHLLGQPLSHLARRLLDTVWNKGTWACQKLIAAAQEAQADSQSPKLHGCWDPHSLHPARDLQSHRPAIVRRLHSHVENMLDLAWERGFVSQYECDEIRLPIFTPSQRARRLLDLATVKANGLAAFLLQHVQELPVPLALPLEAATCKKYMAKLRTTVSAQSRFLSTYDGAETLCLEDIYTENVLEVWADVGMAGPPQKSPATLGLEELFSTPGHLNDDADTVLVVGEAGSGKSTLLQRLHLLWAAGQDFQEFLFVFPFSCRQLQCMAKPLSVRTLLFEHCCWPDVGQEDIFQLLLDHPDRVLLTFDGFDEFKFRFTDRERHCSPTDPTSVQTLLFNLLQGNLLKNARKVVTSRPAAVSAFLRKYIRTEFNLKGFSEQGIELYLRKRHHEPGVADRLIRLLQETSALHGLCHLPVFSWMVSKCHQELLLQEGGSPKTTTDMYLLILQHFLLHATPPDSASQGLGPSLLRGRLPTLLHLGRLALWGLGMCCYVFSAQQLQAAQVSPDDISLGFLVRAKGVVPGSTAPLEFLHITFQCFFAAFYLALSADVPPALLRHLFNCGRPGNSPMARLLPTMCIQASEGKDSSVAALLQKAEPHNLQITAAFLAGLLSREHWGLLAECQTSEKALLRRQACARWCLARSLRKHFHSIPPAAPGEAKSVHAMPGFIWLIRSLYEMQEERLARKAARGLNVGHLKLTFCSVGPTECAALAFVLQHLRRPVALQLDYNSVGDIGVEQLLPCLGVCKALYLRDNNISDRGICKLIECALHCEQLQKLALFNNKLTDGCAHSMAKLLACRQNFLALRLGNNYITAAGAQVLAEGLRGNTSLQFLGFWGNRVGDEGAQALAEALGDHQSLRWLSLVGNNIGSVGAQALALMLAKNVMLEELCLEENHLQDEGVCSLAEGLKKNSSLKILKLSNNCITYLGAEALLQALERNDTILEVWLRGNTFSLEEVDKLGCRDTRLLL", "test": "HEK-Blue NOD2 NF-κB SEAP reporter assay (NOD2 agonistic activity)", "assay_type": "cell-based", "protocol": "The synthesized desmuramylpeptides were evaluated for their dose-dependent NOD2 activity using the commercially available HEK-Blue NOD2 reporter cell line. This cell line is derived from HEK293 cells by cotransfection of human NOD2 and an NF-κB-inducible secreted embryonic alkaline phosphatase (SEAP). Activation of NOD2 and subsequently of NF-κB leads to the expression and secretion of SEAP, the level of which can be quantified colorimetrically. […]\ntwo passages, 200 µg/mL Zeocin (Invivogen) was added to the medium every other passage to maintain selection pressure. The cells were incubated in a humidified atmosphere at 37 °C and 5% CO 2. […]\nAldrich), and 100 µg/mL streptomycin (Sigma -Aldrich).\nThe tested compounds were dissolved in DMSO and further di luted in culture medium to the desired final concentrations, such that the final DMSO concentration never exceeded 0.1%. […]\n4.6 NOD1/NOD2-NF-kB reporter assay\nHEK-Blue NOD2 or NOD1 cells were seeded (25,000 cells/well) in 96 -well plates in 100 µL HEK-Blue detection medium (Invivogen, San Diego, CA, USA) and treated with compounds ( 2 µM for fixed […]\nthe corresponding vehicle (0.1% DMSO). After 18 h of incubation (37 °C, 5% CO2), secreted embryonic alkaline phosphatase (SEAP) activity was determined spectrophotometrically as absorbance at 630 nm (BioTek Synergy microplate reader; Winooski, VT, USA). EC50 values were calculated using Prism software (version 9; GraphPad Software, CA, USA). The experiments were run in duplicates and repeated as at least three independent biological replicates. […]", "data": [{"smiles": "CCOC(=O)CC[C@@H](NC(=O)[C@@H](NC(=O)CNC(=O)/C=C/c1ccc(OC(=O)CC23CC4CC(CC(C4)C2)C3)c(OC)c1)C(C)C)C(=O)OCC", "note": "[Compound 40]", "values": [{"measurement": "EC50", "setting": "HEK-Blue NOD2 cells, 18 h, means ± SEMs of at least three independent experiments, 8 or 16 concentrations (0.1 nM to 20 μM)", "value": "4.5 ± 1.1", "unit": "nM"}, {"measurement": "improvement of activity relative to 1", "setting": "NOD2 EC50 versus compound 1", "value": 20, "unit": "factor"}]}]}
